Assay results: patent US20240190886A1, “BRM Targeting Compounds and Associated Methods of Use” (Prelude Therapeutics Incorporated, priority 2022, published 2024)

Tests used:
SMARCA2 = target: T1, SMARCA2 (Homo sapiens, UniProt P51531); experiment: SMARCA2 HiBiT degradation assay in HeLa cells; type: cell-based; settings: 18 hours incubation, Nano-Glo HiBiT Lytic detection
T1 construct: SMARCA2-HiBiT knock-in Hela monoclonal cell (CS302366) and SMARCA4-HiBiT knock-in Hela monoclonal cell (CS3023226) were purchased from Promega; host or cells: HeLa SMARCA2-HiBiT knock-in monoclonal cells (heterozygous knock-in)
Method: (§1) Example A. SMARCA2 HiBiT and SMARCA4 HiBiT Degradation Assay
(§2) HiBiT peptide knock-in of SMARCA2 in LgBiT expressing HEK293T cells was performed by CRISPR-mediated tagging system as described Promega. The homozygous HiBiT knock-in on c-terminus SMARCA2 was confirmed by sanger sequence. SMARCA2-HiBiT knock-in Hela monoclonal cell (CS302366) and SMARCA4-HiBiT knock-in Hela monoclonal cell (CS3023226) were purchased from Promega. The heterozygous HiBiT-knock-in was confirmed by sanger sequence in both SMARCA2-HiBiT and SMARCA4-HiBiT monoclonal cells.
(§3) SMARCA2 HiBiT and SMARCA4 HiBiT degradation assay in HeLa cells
(§4) Dispense 10 ul aliquot of prepared Hela-SMARCA2-HiBiT or Hela-SMARCA4-HiBiT cells (1:1 ratio of cells:Trypan Blue (#1450013, Bio-Rad)) onto cell counting slide (#145-0011, Bio-Rad) and obtain cell density and cell viability using cell counter (TC20, Bio-Rad). Remove appropriate volume of resuspended cells from culture flask to accommodate 2500 cells/well @20 μL/well. Transfer Hela-HiBiT cells to 50 mL conical (#430290, Corning). Spin down at 1000 rpm for 5 min using tabletop centrifuge (SPINCHRON 15, Beckman). Discard supernatant and resuspend cell pellet in modified EMEM (#30-2003, ATCC) cell culture media containing 10% FBS (F2422-500ML, Sigma), and 1X Penicillin/Streptomycin (200 g/L) (30-002-CI, Corning) to a cell density of 125,000 cells/mL. Dispense 20 μLof resuspended Hela-HiBit cells per well in 384-well TC treated plate (#12-565-343, Thermo Scientific) using standard cassette (#50950372, Thermo Scientific) on Multidrop Combi (#5840310, Thermo Scientific) inside laminar flow cabinet.
(§5) Compounds were dissolved in DMSO to make 10 mM stock and 3-fold series dilutions were further conducted keeping the highest concentration 10 RM. Dispense test compounds onto plates using digital liquid dispenser (D300E, Tecan). Incubate plates in humidified tissue culture incubator @37° C. for 18 hours. Add 20 μL of prepared Nano-Glo® HiBiT Lytic detection buffer (N3050, Promega) to each well of 384-well plate using small tube cassette (#24073295, Thermo Scientific) on Multidrop Combi, incubate @ RT for 30-60 min. Read plates on microplate reader (Envision 2105, PerkinElmer) using 384 well Ultra-Sensitive luminescence mode. Raw data files and compound information reports are swept into centralized data lake and deconvoluted using automated scripts designed by TetraScience, Inc. Data analysis, curve-fitting and reporting done in Dotmatics Informatics Suite using Screening Ultra module.
(§6) In Table 1, A=DC50<0.1 RM; B=0.1 μM≤DC50<1 μM and C=DC50>1 μM. In Table 4, A=Dmax>75% and B=50%<Dmax<75% and C=Dmax<50%.

SMARCA4 = target: T2, SMARCA4 (Homo sapiens, UniProt P51532); experiment: SMARCA4 HiBiT degradation assay in HeLa cells; type: cell-based; settings: 18 hours incubation, Nano-Glo HiBiT Lytic detection
T2 construct: SMARCA2-HiBiT knock-in Hela monoclonal cell (CS302366) and SMARCA4-HiBiT knock-in Hela monoclonal cell (CS3023226) were purchased from Promega; host or cells: HeLa SMARCA4-HiBiT knock-in monoclonal cells (heterozygous knock-in)
Method: as §1, §2, §3, §4, §5, §6

T2 sequence (P51532 whole entry): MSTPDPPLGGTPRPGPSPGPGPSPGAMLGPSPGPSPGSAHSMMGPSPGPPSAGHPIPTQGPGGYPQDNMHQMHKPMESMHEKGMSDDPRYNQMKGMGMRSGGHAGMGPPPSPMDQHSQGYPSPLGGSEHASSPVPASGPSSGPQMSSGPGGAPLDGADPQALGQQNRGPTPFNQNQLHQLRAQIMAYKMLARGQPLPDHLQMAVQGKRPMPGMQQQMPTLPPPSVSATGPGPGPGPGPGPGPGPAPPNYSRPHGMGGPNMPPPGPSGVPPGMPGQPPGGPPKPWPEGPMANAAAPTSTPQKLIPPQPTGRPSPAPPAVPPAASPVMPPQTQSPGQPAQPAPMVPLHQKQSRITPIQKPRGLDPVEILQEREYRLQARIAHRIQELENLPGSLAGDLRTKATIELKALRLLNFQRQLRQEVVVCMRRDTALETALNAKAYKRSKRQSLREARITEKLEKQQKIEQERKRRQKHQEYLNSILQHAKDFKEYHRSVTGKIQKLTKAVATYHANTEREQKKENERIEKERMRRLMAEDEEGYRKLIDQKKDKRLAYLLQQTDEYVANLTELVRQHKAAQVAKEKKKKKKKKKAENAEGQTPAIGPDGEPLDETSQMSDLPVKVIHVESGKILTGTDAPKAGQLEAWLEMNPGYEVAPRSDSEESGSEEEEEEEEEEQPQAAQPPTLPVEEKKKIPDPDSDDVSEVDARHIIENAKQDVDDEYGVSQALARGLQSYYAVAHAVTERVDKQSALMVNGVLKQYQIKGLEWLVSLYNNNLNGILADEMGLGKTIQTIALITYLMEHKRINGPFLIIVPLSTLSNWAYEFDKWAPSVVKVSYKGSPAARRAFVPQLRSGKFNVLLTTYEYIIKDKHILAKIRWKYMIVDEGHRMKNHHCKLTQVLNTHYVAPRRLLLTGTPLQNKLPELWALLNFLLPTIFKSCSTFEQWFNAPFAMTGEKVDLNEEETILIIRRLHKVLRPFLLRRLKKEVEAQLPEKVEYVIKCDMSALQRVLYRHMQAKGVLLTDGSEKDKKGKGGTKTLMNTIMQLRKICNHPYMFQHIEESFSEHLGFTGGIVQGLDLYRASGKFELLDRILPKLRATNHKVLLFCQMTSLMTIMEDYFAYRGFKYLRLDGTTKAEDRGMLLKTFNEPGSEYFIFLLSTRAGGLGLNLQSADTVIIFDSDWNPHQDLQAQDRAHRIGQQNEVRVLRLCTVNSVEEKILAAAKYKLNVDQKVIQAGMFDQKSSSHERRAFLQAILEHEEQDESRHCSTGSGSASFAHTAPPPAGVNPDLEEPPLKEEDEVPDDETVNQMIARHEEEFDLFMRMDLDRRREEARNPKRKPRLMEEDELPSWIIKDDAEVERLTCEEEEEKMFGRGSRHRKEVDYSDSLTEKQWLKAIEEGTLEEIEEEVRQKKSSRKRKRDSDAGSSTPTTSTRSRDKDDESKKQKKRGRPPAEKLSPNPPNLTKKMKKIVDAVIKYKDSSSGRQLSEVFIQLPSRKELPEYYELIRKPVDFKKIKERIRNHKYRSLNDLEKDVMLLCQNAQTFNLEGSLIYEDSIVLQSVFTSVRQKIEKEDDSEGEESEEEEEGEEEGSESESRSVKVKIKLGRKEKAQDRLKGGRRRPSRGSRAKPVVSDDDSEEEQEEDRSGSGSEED
T1 sequence (P51531 whole entry): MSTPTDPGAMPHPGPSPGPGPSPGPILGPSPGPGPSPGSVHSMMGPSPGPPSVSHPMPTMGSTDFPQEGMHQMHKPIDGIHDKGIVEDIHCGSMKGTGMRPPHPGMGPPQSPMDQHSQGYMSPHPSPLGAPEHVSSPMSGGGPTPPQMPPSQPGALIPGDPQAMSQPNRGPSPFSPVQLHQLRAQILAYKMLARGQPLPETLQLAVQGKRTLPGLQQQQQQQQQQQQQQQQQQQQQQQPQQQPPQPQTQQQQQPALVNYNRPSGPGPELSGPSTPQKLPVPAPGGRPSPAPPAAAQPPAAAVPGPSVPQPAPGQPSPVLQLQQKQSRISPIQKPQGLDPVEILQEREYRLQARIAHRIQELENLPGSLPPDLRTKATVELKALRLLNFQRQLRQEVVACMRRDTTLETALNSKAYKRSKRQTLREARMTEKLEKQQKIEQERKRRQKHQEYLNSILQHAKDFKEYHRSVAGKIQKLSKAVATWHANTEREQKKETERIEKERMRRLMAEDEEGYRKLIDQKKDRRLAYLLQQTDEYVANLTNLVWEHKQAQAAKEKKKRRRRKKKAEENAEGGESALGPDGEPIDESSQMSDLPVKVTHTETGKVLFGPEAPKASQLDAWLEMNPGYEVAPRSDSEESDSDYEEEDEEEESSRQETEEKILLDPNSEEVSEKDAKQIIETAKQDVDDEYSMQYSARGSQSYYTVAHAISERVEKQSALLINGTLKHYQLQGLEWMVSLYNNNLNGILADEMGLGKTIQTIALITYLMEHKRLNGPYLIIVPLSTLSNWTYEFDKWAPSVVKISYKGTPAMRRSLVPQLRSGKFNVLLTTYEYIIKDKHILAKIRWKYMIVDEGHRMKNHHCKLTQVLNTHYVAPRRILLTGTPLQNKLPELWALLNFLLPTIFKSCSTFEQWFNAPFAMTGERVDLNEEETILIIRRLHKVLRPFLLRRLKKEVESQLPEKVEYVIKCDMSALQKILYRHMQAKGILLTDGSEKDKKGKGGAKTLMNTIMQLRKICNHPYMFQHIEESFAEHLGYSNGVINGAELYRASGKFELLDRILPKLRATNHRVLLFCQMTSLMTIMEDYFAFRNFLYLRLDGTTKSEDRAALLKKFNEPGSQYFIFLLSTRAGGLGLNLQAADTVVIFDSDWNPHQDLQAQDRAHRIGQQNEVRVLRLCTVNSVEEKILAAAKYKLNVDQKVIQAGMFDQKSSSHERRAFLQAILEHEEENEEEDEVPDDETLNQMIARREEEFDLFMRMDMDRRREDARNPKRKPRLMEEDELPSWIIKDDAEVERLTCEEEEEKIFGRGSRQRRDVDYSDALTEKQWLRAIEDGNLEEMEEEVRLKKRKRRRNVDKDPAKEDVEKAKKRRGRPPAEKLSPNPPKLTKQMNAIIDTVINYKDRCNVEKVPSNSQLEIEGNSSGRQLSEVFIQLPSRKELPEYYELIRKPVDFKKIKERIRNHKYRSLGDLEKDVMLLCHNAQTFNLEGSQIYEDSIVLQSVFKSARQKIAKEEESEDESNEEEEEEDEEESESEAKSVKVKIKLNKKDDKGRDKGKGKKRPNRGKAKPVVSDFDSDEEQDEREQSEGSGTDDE

| SMILES | DC50 (SMARCA2) [µM] | Dmax (SMARCA2) [%] | DC50 (SMARCA4) [µM] | Dmax (SMARCA4) [%] |
| --- | --- | --- | --- | --- |
| C[C@@H]1CN(CC2CCN(c3ccc4cnn(C5CCC(=O)NC5=O)c4c3)CC2)C[C@H](C)N1C(=O)N1CCN2c3cc(-c4ccccc4O)nnc3NC[C@H]2C1 (stereo partly drawn) [Example 5, 3-(6-(4-(((3R,5S)-4-((S)-2-(2-hydroxyphenyl)-6,6a,7,8,9,10-hexahydro-5H-pyrazino[1′,2′:4,5]pyrazino[2,3-c]pyridazine-8-carbonyl)-3,5-dimethylpiperazin-1-yl)methyl)piperidin-1-yl)-1H-indazol-1-yl)piperidine-2,6-dione] | 0.1 to 1 | < 50 | > 1 | < 50 |
| C[C@@H]1CN(CC2CCN(c3ccc(C(=O)NC4CCC(=O)NC4=O)c(F)c3)CC2)C[C@H](C)N1C(=O)N1CCN2c3cc(-c4ccccc4O)nnc3NC[C@H]2C1 (stereo partly drawn) [Example 1, N-(2,6-dioxopiperidin-3-yl)-2-fluoro-4-(4-(((3R,5S)-4-((S)-2-(2-hydroxyphenyl)-6,6a,7,8,9,10-hexahydro-5H-pyrazino[1′,2′:4,5]pyrazino[2,3-c]pyridazine-8-carbonyl)-3,5-dimethylpiperazin-1-yl)methyl)piperidin-1-yl)benzamide] | < 0.1 | – | > 1 | – |
| C[C@@H]1CN(CC2CCN(c3ccc4ncn(C5CCC(=O)NC5=O)c(=O)c4c3)CC2)C[C@H](C)N1C(=O)N1CCN2c3cc(-c4ccccc4O)nnc3NC[C@H]2C1 (stereo partly drawn) [Example 2, 3-(6-(4-(((3R,5S)-4-((S)-2-(2-hydroxyphenyl)-6,6a,7,8,9,10-hexahydro-5H-pyrazino[1′,2′:4,5]pyrazino[2,3-c]pyridazine-8-carbonyl)-3,5-dimethylpiperazin-1-yl)methyl)piperidin-1-yl)-4-oxoquinazolin-3(4H)-yl)piperidine-2,6-dione] | < 0.1 | 50 to 75 | 0.1 to 1 | 50 to 75 |
| C[C@@H]1CN(CC2CCN(c3ccc4cn(C5CCC(=O)NC5=O)nc4c3)CC2)C[C@H](C)N1C(=O)N1CCN2c3cc(-c4ccccc4O)nnc3NC[C@H]2C1 (stereo partly drawn) [Example 4, 3-(6-(4-(((3S,5R)-4-((S)-2-(2-hydroxyphenyl)-6,6a,7,8,9,10-hexahydro-5H-pyrazino[1′,2′:4,5]pyrazino[2,3-c]pyridazine-8-carbonyl)-3,5-dimethylpiperazin-1-yl)methyl)piperidin-1-yl)-2H-indazol-2-yl)piperidine-2,6-dione] | < 0.1 | 50 to 75 | < 0.1 | 50 to 75 |
| O=C1CCC(n2ncc3ccc(N4CCC(CN5C[C@@H]6[C@H](C5)[C@H]6CN5CCN6c7cc(-c8ccccc8O)nnc7NC[C@H]6C5)CC4)cc32)C(=O)N1 (stereo partly drawn) [Example 6, 3-(6-(4-(((1R,5S,6r)-6-(((S)-2-(2-hydroxyphenyl)-5,6,6a,7,9,10-hexahydro-8H-pyrazino[1′,2′:4,5]pyrazino[2,3-c]pyridazin-8-yl)methyl)-3-azabicyclo[3.1.0]hexan-3-yl)methyl)piperidin-1-yl)-1H-indazol-1-yl)piperidine-2,6-dione] | 0.1 to 1 | < 50 | > 1 | < 50 |
| C[C@@H]1CN(CC2CCN(c3ccnc(C(=O)NC4CCC(=O)NC4=O)c3)CC2)C[C@H](C)N1C(=O)N1CCN2c3cc(-c4ccccc4O)nnc3NC[C@H]2C1 (stereo partly drawn) [Example 7, N-(2,6-dioxopiperidin-3-yl)-4-[4-[[(3R,5S)-4-[(1OS)-4-(2-hydroxyphenyl) 1,5,6,8,12-pentazatricyclo[8.4.0.02,7]tetradeca-2,4,6-triene-12-carbonyl]-3,5-dimethylpiperazin-1-yl]methyl]piperidin-1-yl]pyridine-2-carboxamide] | < 0.1 | 50 to 75 | > 1 | – |

The next lines start with the values.

| DC50 (SMARCA2) [µM] | Dmax (SMARCA2) [%] | DC50 (SMARCA4) [µM] | Dmax (SMARCA4) [%] | SMILES |
| --- | --- | --- | --- | --- |
| < 0.1 | 50 to 75 | 0.1 to 1 | < 50 | CC[C@]12CNc3nnc(-c4ccccc4O)cc3N1C[C@H](Oc1ccc(CN3CCN(c4ccc(C(=O)NC5CCC(=O)NC5=O)cc4)CC3)cn1)C2 (stereo partly drawn) [Example 12, N-(2,6-dioxopiperidin-3-yl)-4-(4-((6-(((6aS,8R)-6a-ethyl-2-(2-hydroxyphenyl)-5,6,6a,7,8,9-hexahydropyrrolo[1′,2′:4,5]pyrazino[2,3-c]pyridazin-8-yl)oxy)pyridin-3-yl)methyl)piperazin-1-yl)benzamide] |
| < 0.1 | 50 to 75 | < 0.1 | 50 to 75 | Cn1nc(N2CCC(=O)NC2=O)c2ccc(N3CCC(CN4C[C@@H]5[C@H](C4)[C@H]5CN4CCN5c6cc(-c7ccccc7O)nnc6NC[C@H]5C4)CC3)cc21 [Example 8, 1-[6-[4-[[(1S,5R)-6-[[(10S)-4-(2-hydroxyphenyl)-1,5,6,8,12-pentazatricyclo[8.4.0.02,7]tetradeca-2,4,6-trien-12-yl]methyl]-3-azabicyclo[3.1.0]hexan-3-yl]methyl]piperidin-1-yl]-1-methylindazol-3-yl]-1,3-diazinane-2,4-dione] |
| 0.1 to 1 | < 50 | > 1 | < 50 | CC[C@]12CNc3nnc(-c4ccccc4O)cc3N1C[C@H](Oc1ccc(CN3CCN(c4ccc(C(=O)NC5CCC(=O)NC5=O)c(F)c4)CC3)cn1)C2 (stereo partly drawn) [Example 13, N-(2,6-dioxopiperidin-3-yl)-4-(4-((6-(((6aS,8R)-6a-ethyl-2-(2-hydroxyphenyl)-5,6,6a,7,8,9-hexahydropyrrolo[1′,2′:4,5]pyrazino[2,3-c]pyridazin-8-yl)oxy)pyridin-3-yl)methyl)piperazin-1-yl)-2-fluorobenzamide] |
| < 0.1 | > 75 | < 0.1 | > 75 | CC[C@]12CNc3nnc(-c4ccccc4O)cc3N1C[C@H](Oc1ccc(CN3CCN(c4ccc(C5CCC(=O)NC5=O)cc4)CC3)cn1)C2 (stereo partly drawn) [Example 14, 3-(4-(4-((6-(((6aS,8R)-6a-ethyl-2-(2-hydroxyphenyl)-5,6,6a,7,8,9-hexahydro-pyrrolo[1′,2′:4,5]pyrazino[2,3-c]pyridazin-8-yl)oxy)pyridin-3-yl)methyl)piperazin-1-yl)phenyl)piperidine-2,6-dione] |
| < 0.1 | > 75 | < 0.1 | > 75 | CC[C@@]12CNc3nnc(-c4ccccc4O)cc3N1C[C@H](Oc1ccc(CN3CCC(c4ccc(C5CCC(=O)NC5=O)cc4)CC3)cn1)C2 (stereo partly drawn) [Example 16, 3-(4-(1-((6-(((6aR,8R)-6a-ethyl-2-(2-hydroxyphenyl)-5,6,6a,7,8,9-hexahydro-pyrrolo[1′,2′:4,5]pyrazino[2,3-c]pyridazin-8-yl)oxy)pyridin-3-yl)methyl)piperidin-4-yl)phenyl)piperidine-2,6-dione] |
| 0.1 to 1 | < 50 | < 0.1 | 50 to 75 | CC[C@]12CNc3nnc(-c4ccccc4O)cc3N1C[C@H](Oc1ccc(CN3CCN(c4ccc(N5CCC(=O)NC5=O)cc4)CC3)cn1)C2 [Example 9, 1-(4-(4-((6-(((6aS,8R)-6a-ethyl-2-(2-hydroxyphenyl)-5,6,6a,7,8,9-hexahydro-pyrrolo[1′,2′:4,5]pyrazino[2,3-c]pyridazin-8-yl)oxy)pyridin-3-yl)methyl)piperazin-1-yl)phenyl)dihydropyrimidine-2,4(1H,3H)-dione] |
| < 0.1 | > 75 | < 0.1 | > 75 | CC[C@]12CNc3nnc(-c4ccccc4O)cc3N1C[C@H](Oc1ccc(CN3CCN(c4ccc(NC5CCC(=O)NC5=O)cc4)CC3)cn1)C2 (stereo partly drawn) [Example 10, 3-((4-(4-((6-(((6aS,8R)-6a-ethyl-2-(2-hydroxyphenyl)-5,6,6a,7,8,9-hexahydro-pyrrolo[1′,2′:4,5]pyrazino[2,3-c]pyridazin-8-yl)oxy)pyridin-3-yl)methyl)piperazin-1-yl)phenyl)amino)piperidine-2,6-dione] |
